No end group written: not given here.
Columns and labels:
whole rat hearts = assay: Ex vivo whole hearts, peptide during reperfusion after 20 min global ischemia, functional recovery
Experimental: Another study was performed to determine if the peptides could be delivered to an intact organ to provide protection after an ischemic insult. In this study, as described in Example 4, the rat heart model described above was used and the hemodynamic parameters were measured during the 20 minutes of global ischemia and the […]. During the reperfusion only, δV1-1 was delivered at a concentration of 500 nM.
In a similar study, five pairs of rats were treated as described in Example 4, where the ex vivo hearts were subjected to 20 minutes of ischemia and 30 minutes of reperfusion. During the first 20 minutes of reperfusion, 500 nM of δV1-1 or vehicle control was administered.
Rat hearts were isolated as described in Example 3. The left ventricular pressure and its real-time derivative (dP/dt) were monitored via a latex balloon placed in the ventricular cavity and at a constant heart rate by pacing (3.3 Hz) and at a constant coronary flow (10 ml/min.). The hearts were subjected to 20 minutes of ischemia and 30 minutes of re-perfusion. During the first 20 minutes of reperfusion, 500 nM of δV1-1 or vehicle control was delivered.

adult female pigs [1] = assay: In vivo pig cardiac ischemia (30 min LAD balloon occlusion), infarct of area at risk after five days; conditions: approximately 20 μg Tat-conjugated peptide during last 10 minutes of 30 minute occlusion; five days later
Experimental: In another study in support of the invention, the ability of δV1-1 peptide to protect tissue from damage due to an ischemic or hypoxic event was evaluated by administering the peptide in vivo to adult female pigs. As detailed in Example 5, δV1-1 peptide was administered to the pigs during the last 10 minutes of a 30 minute ischemic insult. Five days later, the hearts were analyzed for tissue damage. Adult female pigs, 35-40 kg in weight, were anesthetized and a catheter was introduced through the carotid artery into the heart. Using conventional intervention cardiology techniques, a wire was placed through a catheter and into the left anterior descending artery. A balloon was run over this wire to a site of occlusion where it was then inflated to block blood flow for 30 minutes. […] From this the percent infarct per area at risk for each slice and for the entire heart was determined.

adult female pigs [2] = assay: Pathology of blood and tissue samples of the treated pigs; parameters: species or system pig; conditions: pigs treated in vivo with δV1-1
Excerpt: Blood samples and tissue samples of lung, liver, brain, gut, kidney, etc. were collected from the animals and analyzed at a pathology lab. […] Kidney, liver, brain, and lung functions were normal and all blood analyses were also normal.

pigs = assay: Left ventricurogram in pigs, ejection fraction; format: in vivo, pig
Experimental: In another study, left ventricurogram was performed in pigs (n=5) at three time points: (1) before occlusion of left anterior descending artery by balloon catheter (pre ischemia); (2) immediately after reperfusion with 2.5 μM/10 mL of δV1-1 (post ischemia); and (3) before sacrifice five days later (5 days post ischemia), using 6 Fr. of pig-tail catheter. LVG was recorded by 2 views, right anterior oblique and left anterior oblique. Ejection fraction (EF), the percent of blood ejected in a beat, during maximum contraction, of the total maximum present in the left ventricle, was analyzed by the software, Plus Plus (Sanders Data Systems), and the averages of two views were evaluated. Ejection fraction is a measure of how well the heart is functioning, with a higher ejection fraction indicative of a better functioning heart.

Sprague-Dawley rats = assay: Rat cerebral ischemia (stroke) model, middle cerebral artery occlusion, infarct area; format: in vivo; conditions: Tat-conjugated δV1-1 into carotid artery prior to ischemia and at end of 2 hour occlusion, final blood concentration 1 μM; brains 24 hrs later
Experimental: In another study performed in support of the invention, the ability of δV1-1 peptide (SEQ ID NO:4) to inhibit damage to the brain as a result of stroke was examined. In this study, described in Example 6, a rat cerebral ischemia model was used. Ischemia was induced using an intraluminal suture to occlude the ostium of the middle cerebral artery. δV1-1 conjugated to Tat peptide (SEQ ID NO:9) or the Tat peptide alone were injected into the carotid artery before and after a two hour occlusion period. The brain from each animal was harvested 24 hours later, stained, and examined.
Adult male Sprague-Dawley rats weighing between 280-320 g were used. Animals were maintained under isofluorane anesthesia during all surgical procedures. Physiological parameters were monitored and maintained in the normal range. Rectal temperature was also measured. At the completion of the experiment, the animals were euthanized with a barbiturate overdose and prepared for histological analysis.
Ischemia was induced using an occluding intraluminal suture. […]
Animals were perfused with heparinized saline and brains removed and sectioned into 2 mm thick slices. […] Areas of infarction (white) were then measured using an image analysis system previously described (Yenari, M. A. et al., 1998; Maier, C. et al., 1998).

[3] = 500 nM during reperfusion after 20 minutes global ischemia

## SFNSYELGSL (also: conjugated to Antennapedia or Tat carrier; listed as Rattus norvegicus) [δV1-1, tested conjugated to Antennapedia or Tat carrier]
Whole rat hearts; 500 nM during first 20 minutes of reperfusion, 5-30 minutes after reperfusion
  end diastolic pressure (EDP): approximately 60 mmHg
Whole rat hearts; [3]
  coronary perfusion pressure (PP): reduced
  elevated LVP end diastolic pressure: reduced
Whole rat hearts; 500 nM during reperfusion after 20 minutes global ischemia, not shown
  reduction in creatine phosphokinase release compared with vehicle control: ~50%
Whole rat hearts; after ischemia and after treatment with 500 nM δV1-1
  perfusion pressure (PP) relative to hearts left untreated: about 75%
Adult female pigs [1]
  infarct area within the area at risk (heart slices): significantly reduced infarct area
  percent of infarct of the area at risk compared with untreated animals: nearly two-fold lower
Adult female pigs [2]
  blood samples and tissue samples of lung, liver, brain, gut, kidney, pathology: All samples were normal and no inflammation or tissue abnormalities were observed
pigs; reperfusion with 2.5 μM/10 mL of δV1-1, post ischemia
  decrease in ejection fraction compared with scrambled peptide control: less pronounced decrease
pigs; reperfusion with 2.5 μM/10 mL of δV1-1, 5 days post ischemia
  ejection fraction at five days post ischemia: on par with that measured prior to ischemia and significantly higher than the untreated animals
Sprague-Dawley rats
  brain infarct area: significant reduction

From patent US6855693B2, “Peptides for activation and inhibition of δPKC” (The Board of Trustees of the Leland Stanford Junior …, priority 2001, dated 2005)
